System: UCP1 and DIO2 expression in differentiated hBA
Experiment: Q-RT-PCR for UCP1 and DIO2 in differentiated hBA treated with norepinephrine or browning agents
Assay type: cell-based, human
Conditions: hBAs from subject 2; 1 uM norepinephrine (NE) for 4 h
Protocol: FIG. 4A depicts total cellular respiration rate (OCR) measured using the Seahorse extracellular flux analyzer in differentiated hWA and hBA from Sub1 and Sub2 that were treated for 4 h with 10 uM forskolin (Fsk). The same number of cells was used in the assay. Data are presented as mean±s.e.m. (n=10; two-tailed Student's t-test; *P<0.05, **P<0.01, ***P<0.001). A representative experiment from a total of three independent studies is shown. FIG. 4B depicts Q-RT-PCR analysis for UCP1 and DIO2 expression in differentiated hWA and hBA from Sub1 and Sub2 that were treated for 48 h with 3.3 nM BMP7, 3.3 nM BMP8 and 50 nM FGF21. Data are presented as a fold change compared to vehicle treatment of hWA in each subject (mean±s.e.m., n=3; two-tailed Student's t-test; *P<0.05, **P<0.01, ***P<0.001). A representative experiment from a total of three independent studies is shown. […]
RNA extraction, cDNA synthesis, and quantitative real-time PCR (Q-RT-PCR) were performed as described before (Cypess, A. M., et al. Nat Med 19, 635-639, 2013; Tseng, Y. H., et al. Nature 454, 1000-1004, 2008). Q-RT-PCR assays were run in duplicates and quantified in the ABI Prism 7900 sequence-detection system using SYBR (Roche Applied Science, Indianapolis, Ind.). Relative mRNA expression was determined by the delta-Ct method and the values were normalized to the expression of 18S ribosomal RNA (18s).

Compound: NC[C@H](O)c1ccc(O)c(O)c1 [norepinephrine]
- levels of UCP1 and DIO2: increasing the levels of UCP1 and DIO2

From patent publication US11078259B2, “Methods and compositions for promoting thermogenic potential” (Joslin Diabetes Center, Inc., priority 2015, dated 2021)
